Test results: US20030013650A1, “VR-OAC, an osomotically activated channel protein, nucleic acids encoding it, and uses thereof” (The Rockefeller University, priority 2000, published 2003)
“Also recorded” adds a separate entry of the source.

Experiments:
C. elegans mutant osm-9 = experiment: Transgenic rescue of C. elegans mutant osm-9 (osmotic avoidance, nose touch, odorant avoidance); assay type: in vivo, Caenorhabditis elegans; settings: for rescue of lack of osmotic avoidance and lack of response to nose touch: expressed in ASH neurons (sra6 promotor) of osm-9 worms
Protocol: The coding region of the rat VR-OAC cDNA was cloned into the C. elegans expression vector pPD49.26 that contained the sra6 promotor. This promotor directs expression in the ASH and ASI neurons. Purified DNA was injected into the gonad of hermaphroditic worms, strain N2, together with the marker gene elt-2/green fluorescent protein (GFP) which directs expression of GFP in C. elegans intestinal cells. Transgenic offspring could be identified by GFP fluorescence, and VR-OAC transgenic lines of worms were generated. Likewise, several transgenic lines of worms were established and maintained on an osm-9 (ky-10 allele) genetic background. In these worms, an osmotic avoidance in response to hyperosmotic stimuli was clearly present, as was sensitivity to nose touch (FIGS. 15A and 15B). The avoidance reactions were assayed on single animals as previously described^34. Odorant avoidance in response to octanone was not present. […] In order to confirm that the observed rescue is mediated by the ASH neuron, both ASH neurons were laser ablated in osm-9/VR-OAC transgenic (tg) worms. This procedure completely abolished rescue (FIGS. 15A and 15B). In order to visualize subcellular localization of the VR-OACtg in the ASH neuron, GFP was tagged to the C-terminus of VR-OAC. The tagged protein could be localized to the cilia of the ASH neuron in the worm nose where fluorescence was stronger than in any other part of this neuron. Rescue was not impaired in VR-OAC/GFPtg osm-9 worms (FIGS. 15A and 15B).
In order to understand better the specificity of the observed rescue, VR-OACtg worms were crossed to C. elegans mutants which genetically define the alternate mechanosensory pathway. VR-OACtg worms of the following mutant lines were generated: ocr-2, odr-3, glr-1, osm-10 and double-mutants of the former with osm-9. These lines were tested for osmotic avoidance, nose touch and odorant avoidance. […] In another control experiment addressing the specificity of the observed rescue, we expressed rat VR1 under the control of the sra6 promotor in ASH neurons of wild type and osm-9 worms. No rescue was observed. However, in osm-9 as well as in wild type worms tg for VR1 there was a strong avoidance response to vanilloids which was absent in non-tg worms.
Next, we wanted to use the transgenic rescue of osm-9 by VR-OAC as an in-vivo model in order to better understand structure-function relationships of VR-OAC. Gross deletions were constructed lacking either the N-terminal intracellular domain (aminoacid [AA] 1-410 of VR-OAC), the C-terminal intracellular domain (AA 741-781 of VR-OAC) or both. Three lines of worms were established for each of the gross deletions. The line with the most pronounced rescue as an indication of highest expression level of tg was investigated more in depth. […] The N-terminus and the C-terminus thus appear dispensable for the response to osmotic and mechanical stimuli, and, most likely, for proper intracellular transport in the ASH neuron. In addition to these gross deletions, we wanted to learn more about the structure-function relationship of strategically positioned single amino acid exchanges in the pore-loop domain of VR-OAC. As for the gross deletions, three lines of worms were generated for each point mutation. […]

VR-OAC [1] = experiment: Ca2+ imaging (fluo-4) of CHO cells transfected with VR-OAC or variants; assay type: cell-based, rat and chicken; settings: for fluo-4 fluorescence upon exposure to hypotonic medium: stores depleted with 10 μM thapsigargin and potentiation channels blocked with 20 μM SKF 96365 (combined); for response of VR-OAC-transfected cells to ligand (fluo-4 Ca2+ imaging): chicken and rat VR-OAC-transfected cells, resiniferatoxin 0.2 μM and 5 μM, anandamide 5 μM and 25 μM
Source text: (§1) To confirm that VR-OAC constitutes an ion channel and to determine the stimulus that gates it, we expressed the rat and chicken proteins in stably transfected Chinese hamster ovary (CHO) cells. Untransfected CHO cells and a line stably transfected with a VR1-expressing plasmid served as controls. We loaded VR-OAC-expressing cells with the Ca^2+ indicator fluo-4 AM and used conventional and confocal icroscopy to monitor changes in fluorescence, which reflected alterations in the ntracellular Ca^2+ concentration.
(§2) The complete cDNAs of rat VR-OAC, chicken VR-OAC, and rat VR1 were subcloned into the eukaryotic expression vector pcDNA3.1 (Invitrogen, Carlsbad, Calif.). CHO-K1 cells (ATCC, Manassas, Va.) were transfected with these vectors and selected with G418 (Life Technology, Gaithersburg, Md.). Stable clones that expressed the mRNAs were identified by Northern blot analysis and, for VR1, by response to ligand.
(§3) For Ca2+ imaging, cells were loaded for 30 min at room temperature in […] fluo-4 AM ester (Molecular Probes, Eugene, Oreg.) in isoosmotic Hille's saline solution (130 mM Na^+, 2.5 mM K^+, 2 mM Ca2+, 1 mM Mg2+, 138.5 mM Cl−, 20 mM D-glucose, and 10 mM HEPES at pH 7.3; Babcock et al., 1997) containing 2 mM probenecid. The cells were then washed and incubated for 15 min at 30° C. to promote deacetylation of internalized fluo-4 AM ester.
(§4) Confocal analysis was performed with an MRC-1024ES system (Bio-Rad, Hercules, Calif.) mounted on an inverted microscope (Zeiss Axiovert 135TV, Carl Zeiss, Jena, Germany). Confocal image series were collected using Lasersharp software (BioRad) running on a Poweredge 2300 computer (Dell Computer, Round Rock, Tex.). Images were also recorded with a cooled digital camera (Micromax, Princeton Instruments Inc., Princeton, N.J.) atop a Zeiss Axioplan microscope. These images were analyzed using IPLab software (Scanalytics Inc., Fairfax, Va.). Analysis of single-frame or single-cell integrated signal density was performed on Macintosh computers running NIH Image software (version 1.61; O'Neill et al., 1989).
(§5) Solutions with different osmotic strengths were created by adding water or mannitol to Hille's saline solution. Unless otherwise noted, the Ca2+ concentration of all solutions was held constant at 2 mM. The resultant osmolalities were verified with a vapor-pressure osmometer (Vapro 5520, Wescor Inc., Logan, Utah). The test solutions included a graded series of hypotonic solutions (with 220 mmol kg-1 the lowest osmolality), a hypertonic solution (330 mmol kg-1), isotonic solutions at 295 mmol kg-1 with graded concentrations of Na+ (with 50 mM the lowest concentration), and hypotonic solutions containing 100 μM, 250 μM, and 500 μM GdCl3. Ligands used for stimulation were resiniferatoxin (Sigma Chemicals, St. Louis, Mo.) at 0.2 μM and 5 μM and anandamide (Cayman Chemical, Ann Arbor, Mich.) at 5 μM and 25 μM. To test whether VR-OAC is directly gated by increases in temperature, we exposed dishes containing fluo-4-loaded cells to temperatures ranging from room temperature to 30° C., 37° C., 40° C., 45° C., 50° C., and 55° C. Images were acquired during the thermal stimulus series at intervals of 60 s for up to 10 min after the start of heating. A series of calibration experiments confirmed that this interval ensured proper thermal equilibration. A similar procedure was used to test the response to hypotonicity at various temperatures.

VR-OAC [2] = experiment: Whole-cell and patch recordings from VR-OAC-transfected CHO-K1 cells; assay type: cell-based, chicken or rat; design: effect on VR-OAC-transfected cells (whole-cell current) / effect on whole-cell current: dose or concentration left out as unconfirmed; settings: for VR-OAC currents on stimulation with hypotonic solution: after incubation in 10 μM thapsigargin and 20 μM SKF 96365 (combined)
Protocol: Electrophysiological characterization of VR-OAC was performed at room temperature on CHO-K1 cell lines stably or transiently transfected with one of four expression vectors, pcDNA3.1 (Invitrogen) with inserts bearing chicken or rat VR-OAC, eGFP-OAC, or eGFP-ΔOAC. These cells were selected because untransfected HEK 293 cells responded to hypotonic stress and Xenopus laevis oocytes are known to respond to membrane stretch (Yang and Sachs, 1989). Cells plated on glass-bottom Petri dishes were observed through a 40× water-immersion objective lens on an inverted microscope (Aviovert 100 M, Carl Zeiss) equipped with Nomarski optics. We recorded whole-cell and patch currents with a voltage-clamp amplifier (EPC-7, List-Electronic, Darmstadt-Eberstadt, Germany). Voltage stimuli were generated and responses recorded with a computer (P6400 GX1, Dell) running LabVIEW 5.0 software (National Instruments, Austin, Tex.). Voltage and current responses were low-pass filtered at 2 kHz with an eight-pole Bessel filter and sampled at 5 kHz.
Tight-seal pipettes were bent to permit an orthogonal approach to a cell's surface and heat-polished to give resistances of 3-5 MΩ. Internal solutions typically contained 117 mM NaCl, 5 mM HEPES, 1 mM EDTA, and mannitol to achieve isotonicity. EDTA was omitted in the pipette solution during experiments in which the bath solution also lacked EDTA. Pipette and cell capacitance were largely compensated; series resistance compensation ranged from 10% to 60%. Ground reference was provided by an Ag—AgCl electrode through a 150 mM KC1 agar bridge.
A fluid-jet stimulus was delivered by applying a pressure pulse of about 3 kPa to the rear of a glass pipette with a tip diameter of 5-10 μm. Filled with saline solution identical to that in the recording chamber, the pipette's tip was oriented perpendicular to the bottom of the chamber and placed roughly 10 μm above the target cell. The onset and termination of the jet were regulated by a solenoid valve (Picospritzer II, General Valve Corporation, Fairfield, N.J.) under computer control. During whole-cell recording, cells were maintained in isotonic or slightly hypertonic solutions. Mechanical stimulation was accomplished by perfusion of hypotonic solutions. […] Isotonic and hypertonic solutions were prepared by supplementing the standard hypotonic solution with mannitol to respectively 295 mmol kg−1 and 340 mmol kg−1.
In studies of the effects of Ca2+ and Gd3+ on whole-cell currents, hypotonic test solutions included respectively 2 mM CaCl2 or […] GdCl3. Because carboxylic-acid Ca2+ chelators are known to compromise the capacity of GdC13 to block mechanosensitive channels (Caldwell et al., 1998), EDTA was excluded from the latter medium and the pipette solution. […]

VR-OAC [3] = target: T1, VR-OAC (Rattus norvegicus, UniProt Q9ERZ8, M680K); experiment: Ca2+ imaging (fluo-4) of CHO cells transfected with VR-OAC or variants; assay type: cell-based, rat and chicken; settings: tissue culture cells
T1 construct: The complete cDNAs of rat VR-OAC, chicken VR-OAC, and rat VR1 were subcloned into the eukaryotic expression vector pcDNA3.1; expressed in transfected cells; host or cells: CHO-K1 (stably or transiently transfected, pcDNA3.1)
Source text: as §1, §2, §3, §4, §5

rat VR1 = target: T2, rat VR1 (Rattus norvegicus, UniProt O35433); experiment: Ca2+ imaging (fluo-4) of control CHO cells expressing rat VR1; assay type: cell-based; settings: control CHO line expressing rat VR1; 200 nM resiniferatoxin (FIG. 10A legend)
T2 construct: The complete cDNAs of rat VR-OAC, chicken VR-OAC, and rat VR1 were subcloned into the eukaryotic expression vector pcDNA3.1; expressed in transfected cells
Source text: as §1
as §2, with “ligand. […]” for “ligand.”
Confocal analysis was performed with an MRC-1024ES system (Bio-Rad, Hercules, Calif.) mounted on an inverted microscope (Zeiss Axiovert 135TV, Carl Zeiss, Jena, Germany). […] Images were also recorded with a cooled digital camera (Micromax, Princeton Instruments Inc., Princeton, N.J.) atop a Zeiss Axioplan microscope. These images were analyzed using IPLab software (Scanalytics Inc., Fairfax, Va.). […]

T2 sequence (O35433 whole entry): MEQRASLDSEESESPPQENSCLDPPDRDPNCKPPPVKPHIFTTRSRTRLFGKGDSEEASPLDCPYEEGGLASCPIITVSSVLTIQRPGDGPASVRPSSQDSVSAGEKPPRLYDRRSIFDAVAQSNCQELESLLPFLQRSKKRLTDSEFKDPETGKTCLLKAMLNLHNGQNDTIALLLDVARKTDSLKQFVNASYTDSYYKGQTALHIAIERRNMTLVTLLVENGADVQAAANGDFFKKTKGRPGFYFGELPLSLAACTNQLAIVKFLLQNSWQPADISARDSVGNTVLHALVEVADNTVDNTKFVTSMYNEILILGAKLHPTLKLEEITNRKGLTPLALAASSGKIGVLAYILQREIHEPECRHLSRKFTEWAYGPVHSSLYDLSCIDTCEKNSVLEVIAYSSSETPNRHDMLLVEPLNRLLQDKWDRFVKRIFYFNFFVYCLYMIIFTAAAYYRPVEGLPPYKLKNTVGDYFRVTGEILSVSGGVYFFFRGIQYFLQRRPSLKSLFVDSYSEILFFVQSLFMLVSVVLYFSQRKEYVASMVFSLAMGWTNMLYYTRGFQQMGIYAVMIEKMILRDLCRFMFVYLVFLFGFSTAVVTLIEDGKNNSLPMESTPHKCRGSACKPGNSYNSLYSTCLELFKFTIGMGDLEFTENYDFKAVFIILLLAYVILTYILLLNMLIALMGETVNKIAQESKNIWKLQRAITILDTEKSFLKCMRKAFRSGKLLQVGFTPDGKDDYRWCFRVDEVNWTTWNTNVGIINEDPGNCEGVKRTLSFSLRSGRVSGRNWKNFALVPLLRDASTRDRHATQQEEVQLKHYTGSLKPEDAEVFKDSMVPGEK
T1 sequence (Q9ERZ8 whole entry M680K): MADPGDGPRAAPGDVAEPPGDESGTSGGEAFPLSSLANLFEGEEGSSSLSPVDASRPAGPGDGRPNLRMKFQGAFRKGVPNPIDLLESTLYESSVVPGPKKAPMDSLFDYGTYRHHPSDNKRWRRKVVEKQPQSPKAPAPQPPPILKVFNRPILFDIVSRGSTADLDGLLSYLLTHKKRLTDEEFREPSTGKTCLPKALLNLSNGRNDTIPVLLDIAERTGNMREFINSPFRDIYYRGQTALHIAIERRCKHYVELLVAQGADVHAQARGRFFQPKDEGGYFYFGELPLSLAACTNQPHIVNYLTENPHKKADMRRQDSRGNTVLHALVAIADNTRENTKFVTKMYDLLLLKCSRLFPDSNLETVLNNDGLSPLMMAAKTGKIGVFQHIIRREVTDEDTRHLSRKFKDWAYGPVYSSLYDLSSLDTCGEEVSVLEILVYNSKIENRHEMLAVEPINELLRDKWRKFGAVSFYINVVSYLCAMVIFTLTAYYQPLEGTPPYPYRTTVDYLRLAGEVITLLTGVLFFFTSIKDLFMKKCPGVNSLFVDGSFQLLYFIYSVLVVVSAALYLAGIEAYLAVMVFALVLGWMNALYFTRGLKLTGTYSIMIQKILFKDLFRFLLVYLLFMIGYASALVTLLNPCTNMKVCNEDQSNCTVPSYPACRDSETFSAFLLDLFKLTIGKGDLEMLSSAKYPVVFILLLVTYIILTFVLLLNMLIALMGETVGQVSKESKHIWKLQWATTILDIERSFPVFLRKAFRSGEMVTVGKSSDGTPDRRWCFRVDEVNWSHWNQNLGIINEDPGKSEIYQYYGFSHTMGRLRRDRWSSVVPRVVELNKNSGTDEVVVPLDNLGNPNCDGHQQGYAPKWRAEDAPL

## rat VR1: rat vanilloid receptor 1, expressed as specificity control
C. elegans mutant osm-9
  rescue of lack of osmotic avoidance and lack of response to nose touch: No rescue

## COc1ccc(CCCOC(Cn2ccnc2)c2ccc(OC)cc2)cc1 (stereo not drawn) [SKF 96365]
VR-OAC [1]
  fluo-4 fluorescence upon exposure to hypotonic medium: does not increase
VR-OAC [2]
  VR-OAC currents on stimulation with hypotonic solution: displayed characteristic VR-OAC currents

## CCCCC/C=C\C/C=C\C/C=C\C/C=C\CCCC(=O)NCCO [anandamide]
VR-OAC [1]
  response of VR-OAC-transfected cells to ligand (fluo-4 Ca2+ imaging): responded neither

## C/C=C(/C)C(=O)O[C@H]1C(C)=C2[C@H]([C@@H]1OC(=O)CCCCCCC)[C@@](C)(OC(C)=O)C[C@H](OC(=O)CCC)[C@@]1(O)[C@H]2OC(=O)[C@@]1(C)O [thapsigargin]
VR-OAC [1]
  fluo-4 fluorescence upon exposure to hypotonic medium: does not increase
VR-OAC [2]
  VR-OAC currents on stimulation with hypotonic solution: displayed characteristic VR-OAC currents

## M680K: VR-OAC mutation of Lysine for Methionine at amino acid 680
VR-OAC [3]
  function in tissue culture cells: totally lacked function
C. elegans mutant osm-9
  rescue of lack of osmotic avoidance and lack of response to nose touch: strikingly reduce rescue

## [Gd+3] [Gd^3+, Gadolinium ion]
VR-OAC [2]; Gd^3+ extracellular, within the first few minutes
  effect on VR-OAC-transfected cells (whole-cell current): resembled that of Ca^2+
VR-OAC [2]; Gd^3+, more protracted exposure
  effect on whole-cell current: irreversibly abolished the whole-cell current

## C=C(C)[C@]12C[C@@H](C)[C@@]34O[C@](Cc5ccccc5)(O[C@@H]1[C@@H]3C=C(COC(=O)Cc1ccc(O)c(OC)c1)C[C@]1(O)C(=O)C(C)=C[C@@H]41)O2 [resiniferatoxin]
VR-OAC [1]
  response of VR-OAC-transfected cells to ligand (fluo-4 Ca2+ imaging): responded neither
Rat VR1
  intracellular Ca^2+ concentration / Ca^2+ influx (fluo-4 fluorescence): strong Ca^2+ influx; also recorded: increases the intracellular Ca^2+ concentration

## rat VR-OAC: rat orthologue of VR-OAC, 871 amino acids
C. elegans mutant osm-9
  rescue of lack of osmotic avoidance and lack of response to nose touch: partial rescue
C. elegans mutant osm-9; osm-9 worms, octanone
  rescue of lack of odorant avoidance: no rescue

B1: VROAC without both its N-terminus and C-terminus: VR-OAC deletion of both N-terminal (AA 1-410) and C-terminal (AA 741-781) regions (protein, UniProt Q9HBA0 411-740, looked up, fragment)
chain: YGPVYSSLYDLSSLDTCGEEASVLEILVYNSKIENRHEMLAVEPINELLRDKWRKFGAVSFYINVVSYLCAMVIFTLTAYYQPLEGTPPYPYRTTVDYLRLAGEVITLFTGVLFFFTNIKDLFMKKCPGVNSLFIDGSFQLLYFIYSVLVIVSAALYLAGIEAYLAVMVFALVLGWMNALYFTRGLKLTGTYSIMIQKILFKDLFRFLLVYLLFMIGYASALVSLLNPCANMKVCNEDQTNCTVPTYPSCRDSETFSTFLLDLFKLTIGMGDLEMLSSTKYPVVFIILLVTYIILTFVLLLNMLIALMGETVGQVSKESKHIWKLQWATT
C. elegans mutant osm-9
  rescue of lack of osmotic avoidance and lack of response to nose touch: still rescues
